The numbers were not newly measured in patent US20100160295A1, “TREATMENT OF RESTLESS LEG SYNDROME AND SLEEP DISORDERS” (SYNOSIA THERAPEUTICS, priority 2008, published 2010), which cites them from elsewhere.

In the series the test system is RLS patients. The settings on record: RLS treatment, cited from earlier work.

Take `CCCN[C@H]1CCc2nc(N)sc2C1` [Pramipexole]: the “major side effects reported” value is “insomnia, dizziness, constipation, asthenia and hallucinations”.
With `N[C@@H](Cc1ccc(O)c(O)c1)C(=O)O` [levidopa], the “augmentation (worsening of symptoms following initiation of therapy), patients affected” value (estimated) was 50-85%.
